Like-named read-outs stand apart in the source and are kept apart here.
What was measured:
[1] = target: T1, human 5HT1E (Homo sapiens, UniProt P28566); assay: Radioligand binding, 5HT1E receptor ([3H]-serotonin)
T1 construct: expressed in transfected cells
Procedure: (§1) Human 5HT1B, 5HT1D, 5HT1E, 5HT1F, and 5HT7 Receptors: The cell lysates of LM(tk-) clonal cell line stably transfected with the genes encoding each of these 5HT receptor-subtypes were prepared as described above. Cell membranes were suspended in 50mM Tris-HCl buffer (pH 7.4 at 37°C) containing 10 mM MgCl2, 0.2 mM EDTA, 10 µM pargyline, and 0.1% ascorbate. […] Nonspecific binding was determined in the presence of 10 µM serotonin. The bound radioligand was separated by filtration through GF/B filters using a cell harvester.
(§2) Binding data were analyzed using nonlinear regression and statistical techniques available in the GraphPAD Prism package (San Diego, CA). Enzymatic assay data were derived from a standard curve of reference compound data.

[2] = target: T2, dopamine D5 receptor (Homo sapiens, UniProt P21918); assay: Radioligand binding, dopamine D5 receptor
T2 construct: expressed in transfected cells
Text: (§3) Other receptors: Cell membranes expressing human dopamine D1, D2, D4 and rat D3 receptors were purchased through BioSignal, Inc. (Montreal, Canada). Binding assays using the histamine H1 receptor; dopamine receptors; and α1A, α1E, and α2 adrenergic receptors may be carried out according to the procedures described in U.S. Patent No. 5,780,485, the disclosure of which is hereby incorporated by reference in its entirety into this application. Binding assays using the dopamine D5 receptor may be carried out according to the procedures described in U.S. Patent No. 5,882,855, the disclosure of which is hereby incorporated by reference in its entirety into this application. Binding assays for the human α1D adrenergic receptor may be carried out according to the procedures described in U.S. Patent No. 6,156,518, the disclosure of which is hereby incorporated by reference in its entirety into this application.
as §2

[3] = target: T3, human 5HT6 (Homo sapiens, UniProt P50406); assay: Radioligand binding, 5-HT6 receptor
T3 construct: expressed in transfected cells
Procedure: (§4) Other 5-HT Receptors: Other serotonin receptor binding assays were performed according to published methods: rat 5HT2C receptor (Julius et al., 1988); and 5-HT6 (Monsma, et al., 1993). The binding assays using the 5-HT4 receptor were performed according to the procedures described in U.S. Patent No. 5,766,879, the disclosure of which is hereby incorporated by reference in its entirety into this application.
as §2

[4] = target: T4, human 5HT1B (Homo sapiens, UniProt P28222); assay: Radioligand binding, 5HT1B receptor ([3H]-serotonin)
T4 construct: expressed in transfected cells
Procedure: as §1, §2

[5] = target: T5, human dopamine D2 (Homo sapiens, UniProt P14416); assay: Radioligand binding, dopamine D2 receptor
T5 construct: purchased BioSignal, Inc. (Montreal, Canada)
Text: as §3, §2

[6] = target: T6, rat 5HT2C receptor (Rattus norvegicus, UniProt P08909); assay: Radioligand binding, 5HT2C receptor
T6 construct: expressed in transfected cells
T6 sequence (P08909 33-460): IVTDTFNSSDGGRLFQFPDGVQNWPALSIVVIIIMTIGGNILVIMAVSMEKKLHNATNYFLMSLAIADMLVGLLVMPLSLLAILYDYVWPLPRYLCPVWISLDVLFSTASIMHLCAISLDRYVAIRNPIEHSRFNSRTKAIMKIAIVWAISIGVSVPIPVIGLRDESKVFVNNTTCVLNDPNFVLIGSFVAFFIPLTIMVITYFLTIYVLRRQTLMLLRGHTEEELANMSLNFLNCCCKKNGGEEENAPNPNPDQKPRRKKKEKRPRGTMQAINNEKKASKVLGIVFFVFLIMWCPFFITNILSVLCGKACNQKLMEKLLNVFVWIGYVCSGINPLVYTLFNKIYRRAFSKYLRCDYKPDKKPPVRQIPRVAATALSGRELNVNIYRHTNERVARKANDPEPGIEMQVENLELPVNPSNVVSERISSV
Procedure: as §4, §2

[7] = target: T7, human α2C adrenoceptor (Homo sapiens, UniProt P18825); assay: Radioligand binding, α2C adrenergic receptor
T7 construct: expressed in transfected cells
T7 sequence (P18825 1-462): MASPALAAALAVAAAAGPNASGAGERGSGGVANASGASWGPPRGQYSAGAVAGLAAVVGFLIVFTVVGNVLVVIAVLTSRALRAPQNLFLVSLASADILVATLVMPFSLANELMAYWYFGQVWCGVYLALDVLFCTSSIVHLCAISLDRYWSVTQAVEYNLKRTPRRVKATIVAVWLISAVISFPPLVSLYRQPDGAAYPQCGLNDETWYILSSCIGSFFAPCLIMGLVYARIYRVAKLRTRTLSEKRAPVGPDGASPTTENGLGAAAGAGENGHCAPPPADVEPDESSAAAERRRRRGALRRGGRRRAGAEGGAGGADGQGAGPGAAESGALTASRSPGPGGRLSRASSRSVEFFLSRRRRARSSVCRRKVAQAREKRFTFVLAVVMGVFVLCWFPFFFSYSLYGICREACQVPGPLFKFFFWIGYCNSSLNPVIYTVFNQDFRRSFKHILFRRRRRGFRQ
Text: as §3, §2

[8] = target: T8, human α2B adrenoceptor (Homo sapiens, UniProt P18089); assay: Radioligand binding, α2B adrenergic receptor
T8 construct: expressed in transfected cells
T8 sequence (P18089 1-450): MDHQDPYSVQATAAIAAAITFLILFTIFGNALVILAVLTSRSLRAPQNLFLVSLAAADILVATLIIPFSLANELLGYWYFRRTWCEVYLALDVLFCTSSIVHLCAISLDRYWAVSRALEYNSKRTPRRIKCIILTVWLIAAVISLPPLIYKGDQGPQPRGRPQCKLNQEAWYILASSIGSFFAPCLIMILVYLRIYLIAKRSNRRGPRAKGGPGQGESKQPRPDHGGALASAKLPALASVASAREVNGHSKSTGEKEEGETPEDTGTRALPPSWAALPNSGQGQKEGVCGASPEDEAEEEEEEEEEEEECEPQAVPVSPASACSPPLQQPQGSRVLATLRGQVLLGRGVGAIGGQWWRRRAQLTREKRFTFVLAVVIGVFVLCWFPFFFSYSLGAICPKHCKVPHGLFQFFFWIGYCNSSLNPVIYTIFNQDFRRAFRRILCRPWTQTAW
Text: as §3, §2

[9] = Table 8; Ki h5HT1E divided by Ki hGAL3
[10] = Table 10; Ki hD5 divided by Ki hGAL3
[11] = Table 8; Ki h5HT6 divided by Ki hGAL3
[12] = Table 8; Ki h5HT1B divided by Ki hGAL3
[13] = Table 10; Ki hD2 divided by Ki hGAL3
[14] = Table 8; Ki r5HT2C divided by Ki hGAL3
[15] = Table 10; Ki hα2C divided by Ki hGAL3
[16] = Table 10; Ki hα2B divided by Ki hGAL3

T4 sequence (P28222 whole entry): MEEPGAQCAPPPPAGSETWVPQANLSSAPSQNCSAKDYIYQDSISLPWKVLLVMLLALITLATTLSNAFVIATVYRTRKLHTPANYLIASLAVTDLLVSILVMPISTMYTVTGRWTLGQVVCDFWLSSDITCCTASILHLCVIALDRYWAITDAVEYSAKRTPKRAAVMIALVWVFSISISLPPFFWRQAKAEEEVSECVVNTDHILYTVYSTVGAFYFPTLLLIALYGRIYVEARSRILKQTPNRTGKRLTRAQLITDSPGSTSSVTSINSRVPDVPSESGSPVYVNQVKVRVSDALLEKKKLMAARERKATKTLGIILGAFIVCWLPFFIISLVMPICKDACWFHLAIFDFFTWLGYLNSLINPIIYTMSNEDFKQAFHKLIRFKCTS
T2 sequence (P21918 whole entry): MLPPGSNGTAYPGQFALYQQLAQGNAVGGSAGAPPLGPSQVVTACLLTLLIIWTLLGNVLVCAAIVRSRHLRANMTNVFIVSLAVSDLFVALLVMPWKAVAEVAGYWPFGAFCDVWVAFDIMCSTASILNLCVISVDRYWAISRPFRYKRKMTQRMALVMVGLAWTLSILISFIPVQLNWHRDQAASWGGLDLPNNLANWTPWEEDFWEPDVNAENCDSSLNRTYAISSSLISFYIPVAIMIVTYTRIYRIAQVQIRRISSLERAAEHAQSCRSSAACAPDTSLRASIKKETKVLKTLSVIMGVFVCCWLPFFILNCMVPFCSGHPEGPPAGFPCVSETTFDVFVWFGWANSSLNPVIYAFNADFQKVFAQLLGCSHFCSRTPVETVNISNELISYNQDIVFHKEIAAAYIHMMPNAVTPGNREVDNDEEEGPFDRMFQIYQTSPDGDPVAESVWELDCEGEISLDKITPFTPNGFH
T3 sequence (P50406 whole entry): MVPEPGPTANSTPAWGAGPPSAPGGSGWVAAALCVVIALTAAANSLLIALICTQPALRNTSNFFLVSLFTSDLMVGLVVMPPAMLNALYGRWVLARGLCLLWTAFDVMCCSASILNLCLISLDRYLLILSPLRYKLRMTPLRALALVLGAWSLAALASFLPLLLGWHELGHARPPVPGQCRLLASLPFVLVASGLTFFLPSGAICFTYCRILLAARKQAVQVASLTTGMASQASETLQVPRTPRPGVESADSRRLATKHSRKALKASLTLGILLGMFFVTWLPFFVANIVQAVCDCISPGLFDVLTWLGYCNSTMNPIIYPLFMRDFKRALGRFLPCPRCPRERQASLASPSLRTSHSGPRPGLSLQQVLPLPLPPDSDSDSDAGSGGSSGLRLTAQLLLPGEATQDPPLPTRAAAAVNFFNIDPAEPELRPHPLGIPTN
T5 sequence (P14416 whole entry): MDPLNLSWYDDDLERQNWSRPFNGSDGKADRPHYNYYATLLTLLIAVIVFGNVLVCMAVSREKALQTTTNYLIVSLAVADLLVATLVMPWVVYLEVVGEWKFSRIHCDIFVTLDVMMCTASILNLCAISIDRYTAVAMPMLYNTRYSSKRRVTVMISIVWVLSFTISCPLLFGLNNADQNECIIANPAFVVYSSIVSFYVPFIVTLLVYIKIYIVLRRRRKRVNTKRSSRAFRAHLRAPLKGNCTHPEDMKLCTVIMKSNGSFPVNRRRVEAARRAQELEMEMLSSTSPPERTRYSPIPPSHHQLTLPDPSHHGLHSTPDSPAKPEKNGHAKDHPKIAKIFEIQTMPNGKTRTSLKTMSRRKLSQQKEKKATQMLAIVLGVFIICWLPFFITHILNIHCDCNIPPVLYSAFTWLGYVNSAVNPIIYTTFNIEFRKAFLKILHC
T1 sequence (P28566 whole entry): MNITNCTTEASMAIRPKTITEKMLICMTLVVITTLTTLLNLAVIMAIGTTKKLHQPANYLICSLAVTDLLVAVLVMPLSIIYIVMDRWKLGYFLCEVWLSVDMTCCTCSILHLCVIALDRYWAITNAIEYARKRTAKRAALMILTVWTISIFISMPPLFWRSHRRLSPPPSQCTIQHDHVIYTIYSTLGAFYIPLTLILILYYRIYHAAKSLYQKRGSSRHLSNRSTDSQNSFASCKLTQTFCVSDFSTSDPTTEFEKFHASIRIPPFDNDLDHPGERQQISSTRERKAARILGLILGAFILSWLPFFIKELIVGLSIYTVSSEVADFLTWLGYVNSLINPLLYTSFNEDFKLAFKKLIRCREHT

SMILES | Ki ([1]; Table 7; read-out: h5HT1E Ki) [µM] | selectivity ratio h5HT1E [1, 9] | Ki ([2]; Table 9; read-out: hD5 Ki) [nM] | selectivity ratio hD5 [2, 10] | Ki ([3]; Table 7; read-out: h5HT6 Ki) [nM] | selectivity ratio h5HT6 [3, 11] | Ki ([4]; Table 7; read-out: h5HT1B Ki) [nM] | selectivity ratio h5HT1B [4, 12] | Ki ([5]; Table 9; read-out: hD2 Ki) [nM] | selectivity ratio hD2 [5, 13] | Ki ([6]; Table 7; read-out: r5HT2C Ki) [nM] | selectivity ratio r5HT2C [6, 14] | Ki ([7]; Table 9; read-out: hα2C Ki) [µM] | selectivity ratio hα2C [7, 15] | Ki ([8]; Table 9; read-out: hα2B Ki) [µM] | selectivity ratio hα2B [8, 16] | also measured
Cc1ccc(Nc2cc(N3CCCCC3)nc(N(C)CCc3c[nH]c4ccccc34)n2)cc1 [Example 11] | 9.17 | >100 | 64 | 0.7 | 800 | 9 | 101 | 1 | 782 | 9 | 802 | 9 | 3 | >30 | 10.2 | >100 | –
CN(CCc1c[nH]c2ccccc12)c1nc(Nc2ccc(F)c(F)c2)cc(N2CCCCC2)n1 [Example 15] | 11 | >100 | 78 | 1 | 1460 | 20 | 487 | 7 | 2180 | 30 | 572 | 8 | 8.2 | >100 | 24.5 | >100 | –
COc1cccc(Nc2cc(N3CCCCC3)nc(N(C)CCc3c[nH]c4ccccc34)n2)c1 [Example 17] | 33.5 | >100 | 89 | 1 | 711 | 8 | 407 | 5 | 1810 | 21 | 562 | 6 | 10.3 | >100 | 38.7 | >100 | –
Cc1ccc(Nc2cc(N3CCCCC3)nc(N(C)CCc3ccccc3)n2)cc1 [Example 22] | 13.2 | >100 | 63 | 2 | 2260 | >30 | 1980 | >30 | 1500 | >30 | 1720 | >30 | 2.74 | >100 | 5.76 | >100 | –
Cc1ccc(Nc2cc(N3CCCCC3)nc(N3CCN(c4ncccc4C(F)(F)F)CC3)n2)cc1 [Example 34] | 28.3 | >100 | 111 | 5 | 38900 | >100 | 1060 | >30 | 2500 | >100 | 2080 | >30 | 8.83 | >100 | 15.5 | >100 | –
COC[C@@H]1[C@@H](c2ccccc2)OCCN1c1nc(Nc2ccc(C)cc2)cc(N2CCCCC2)n1 [Example 49] | – | >100 | – | 2 | – | – | – | >30 | – | 28 | – | >30 | – | >30 | – | >100 | Ki ([1]; read-out: h5HT1E Ki; Table 7): 23.9 µM; Ki ([2]; read-out: hD5 Ki; Table 9): 328 nM; Ki ([3]; read-out: h5HT6 Ki; Table 7): 13 nM; Ki ([4]; read-out: h5HT1B Ki; Table 7): 8450 nM; Ki ([5]; read-out: hD2 Ki; Table 9): 5940 nM; Ki ([6]; read-out: r5HT2C Ki; Table 7): 6690 nM; Ki ([7]; read-out: hα2C Ki; Table 9): 9.24 µM; Ki ([8]; read-out: hα2B Ki; Table 9): 25.4 µM
CN(C)c1cc(Nc2ccc(Cl)c(Cl)c2)nc(Nc2ccccc2)n1 [Example 60] | 1.18 | 14 | 538 | 6 | 47500 | >100 | 5460 | >30 | 26800 | >100 | 1780 | 21 | 7.2 | >30 | > 50 | >100 | –
Cc1ccc(Nc2cc(N(C)C)nc(N(C)CCc3c[nH]c4ccccc34)n2)cc1 [Example 77] | 5.89 | >30 | 122 | 2 | 503 | 6 | 365 | 5 | 910 | 11 | 456 | 6 | 0.634 | 8 | 7.78 | >30 | –
O=C1C(=Nc2cccc(C(F)(F)F)c2)c2ccccc2N1c1ccccc1 [Example 92, 1-PHENYL-3- [[3-(TRIFLUOROMETHYL)PHENYL]IMINO]-1,3-DIHYDRO-2H-INDOL-2-ONE] | – | >100 | – | >100 | – | >100 | – | >100 | – | >100 | – | – | – | >100 | – | >100 | –

— EP2140864A2 (H. Lundbeck A/S, priority 2001, dated 2002)
